Test results published in patent US5422372A, “Method of increasing intracellular accumulation of hydrophilic anionic agents using gemfibrizol” (priority 1993, dated 1995).
Converted amounts (≈) assume the structure as drawn. “Also recorded” adds a separate entry of the source. Like-named read-outs stand apart in the source and are kept apart here. Blank lines part the entries; values can stand above or below the compound they belong to.

How the values were obtained:
[1] = test system: organic anion transporters of J774 cells; conditions: cited from earlier work; for effect on intracellular sequestration and secretion of Lucifer Yellow: macrophages and J774 cells
[2] = test system: organic anion transporters of J774 cells; assay: Lucifer Yellow secretion (efflux) from J774 cells; type: cell-based, mouse
Description: Cells were incubated in D10 containing 0.5 mg/ml Lucifer Yellow and 5 mM ATP with or without 10 mM penicillin G. The cells were then washed and incubated in fresh medium at 37° C. At intervals, the cells were viewed by fluorescence microscopy.

[3] = test system: organic anion transporters of J774 cells; type: cell-based, mouse; conditions: for intracellular accumulation of radiolabel from [3H] norfloxacin: J774 cells incubated with [3H] norfloxacin and the inhibitor
Description: [^3 H]-Norfloxacin Retention in J774 Cells: J774 cells were prepared as above. The cells were incubated in PBS with 1.5 μCi/ml [^3 H] norfloxacin in the presence or absence of 10 mM probenecid for various lengths of time, washed and lysed. Cell-associated radioactivity and protein were quantitated as above.

Toxicity to J774 cells = type: cell-based; conditions: mouse, read-out: concentrations toxic to the cells
[4] = test system: organic anion transporters of J774 cells; type: cell-based, mouse
[5] = test system: organic anion transporters of J774 cells; assay: Intracellular Lucifer Yellow accumulation during ATP permeabilization of J774 cells; type: cell-based, mouse; conditions: for effect on intracellular accumulation of Lucifer Yellow during ATP permeabilization: added together with 0.5 mg/ml Lucifer Yellow and 5 mM ATP
Description: The cells were incubated in phosphate buffered saline with divalent cations (PBS) containing 0.5 mg/ml Lucifer Yellow, 5 mM ATP and other compounds, at 37° C. as indicated in the text. The wells were washed with cold phosphate buffered saline without divalent cations (PD) 3 times, and plates were immersed successively in three beakers containing 1,000 ml cold PD. The first beaker also contained 0.1% bovine serum albumin. The cells then were lysed in 0.05% Triton X-100, and fluorescence was measured in a fluorescence spectrophotometer using an excitation wavelength of 430 nm and an emission wavelength 540 nm. Total cell protein was measured by a modification of the Lowery method. (6) Results were expressed as ng Lucifer Yellow/mg protein.
An assay to identify competitive inhibitors of the organic anion transporters that mediate the secretion of Lucifer Yellow was developed. It was reasoned that any substrate of the organic anion transporter small enough to enter the cells through ATP-induced pores, when added together with Lucifer Yellow during ATP permeabilization, would compete with Lucifer Yellow for efflux and cause higher intracellular accumulation of Lucifer Yellow. This assay was used to determine whether various substrates for other organic anion transporters competed with Lucifer Yellow for secretion by J774 cells.

J774 cells = assay: Uptake of [14C] penicillin G by adherent J774 cells from extracellular medium; type: cell-based, mouse; conditions: even in the presence of 10 mM probenecid
Description: It was then questioned whether penicillin G was taken up by J774 cells from the extracellular medium, and whether this uptake was affected by organic anion transporters. In these experiments, adherent J774 cells were incubated in medium containing [^14 C] penicillin G, the cells were washed, and intracellular radiolabel was measured.

[6] = test system: organic anion transporters of J774 cells
[7] = test system: Listeria monocytogenes in J774 cells; assay: Intracellular growth of Listeria monocytogenes in J774 cells; type: cell-based
Description: J774 cells grown in spinner culture were centrifuged for 5 min. at 1000 RPM. The cells were resuspended in fresh DME+5% HICS without antibiotics at a concentration of 2×10^5. 5 ml of this cell suspension was plated into each 60 mm Petri dish containing multiple 12×1 mm round coverslips (Fisher Scientific Co.) the evening before use to allow the cells to form monolayers on the coverslips. The cells were incubated overnight at 37° C.
L. monocytogenes was incubated overnight in BHI broth to a density of approximately 10^9 /ml in a shaker at 37° C. 1 ml of the bacterial suspension was sedimented in a microfuge tube (USA/Scientific Plastics, Ocala, Fla.) for 1 min at 8000 RPM. The supernatant was removed and the pellet was washed once in 1 ml of PBS at pH 7.4. The bacteria were then resuspended in 1 ml fresh DME+5% HICS, diluted in DME+5% HICS to a concentration of 2×10^5 bacteria per ml, and 5 ml of this suspension (10^6 bacteria total) was placed in each 60 mm dish containing a monolayer of J774 cells (infection ratio 1:1). The dishes were incubated at 35° C. for 60 minutes. The coverslip was then transferred to a new 60 mm petri dish containing 10 ml of pre warmed DME+5% HICS and 5 μg/ml of gentamicin. The cells were incubated in the gentamicin containing medium for 1 hr. at 35° C. to kill extracellular bacteria, as described by Portnoy et al. (9), at which time additional drugs were added as indicated below. One 60 mm dish received no addition (control). Other 60 mm dishes received Gemfibrozil (GFZ) (0.2 mM), and/or Norfloxacin (NFX) at 2, 4 or 8 μg per ml, as indicated. Drugs were added either separately or in combination to make four independent sets: No addition, GFZ alone, NFX alone, or GFZ+NFX. The cultures were further incubated at 35° C. Three coverslips containing the Listeria-infected J774 cells were harvested from each culture dish at 2 hours after infection and at 2 hour intervals thereafter. The number of bacteria in the J774 cells on each cover slip was determined by depositing each coverslip into 5 ml of sterile distilled water in a 15 ml Falcon tube. The tubes were vortexed for 15 sec. to lyse the infected cells and 10 or 50 μL of each Listeria-containing solution was plated onto 10 cm dishes containing LB agar. The LB agar plates were incubated at 37° C. overnight, the bacterial colonies were counted, and the number of bacteria per cover slip was calculated from the number of colonies on the agar. Every data point represents the average of the number of bacterial colonies recovered from three coverslips.

L. monocytogenes [8] = assay: Extracellular growth assay: minimum inhibitory concentration (MIC); type: cell-based; conditions: Listeria monocytogenes; brain-heart infusion broth; read-out: NFX concentration that blocked growth of LM (MIC)
Description: L. monocytogenes were inoculated into 1 ml of BHI broth and grown overnight in BHI broth to a density of approximately 10^9 bacteria per ml, diluted to a concentration of 2×10^3 bacteria per ml in Brain Heart Infusion Broth, and 0.5 ml aliquots of this suspension were placed in separate tubes. Norfloxacin (NFX) at the indicated concentrations in 0.5 ml BHI broth was added to the tubes containing L. monocytogenes, and the bacteria were incubated overnight at 25° C., 30° C. and 35° C. The MIC of NFX for L. monocytogenes was determined by visual inspection (tubes without antibiotic, in which the bacteria grew contained a cloudy suspension).

L. monocytogenes [9] = assay: Extracellular growth assay: minimum bacteriocidal concentration (MBC); type: cell-based; conditions: Listeria monocytogenes; brain-heart infusion broth; read-out: NFX concentration bacteriocidal for LM (MBC)
Description: 10 μl of the contents of each sample from the MIC assay described above was plated on 10 cm plates containing 20 ml. LB, agar, and the plates were incubated overnight at 25° C., 30° C. and 35° C. The number of colonies were counted.

SMILES: NNC(=O)NN1C(=O)c2cc(S(=O)(=O)O)cc3c(N)c(S(=O)(=O)O)cc(c23)C1=O [Lucifer Yellow]
dye secreted by the cells into the medium ([1]; within 30 minutes after ATP-mediated permeabilization): 80-85%

SMILES: O=C1C(CC[S+]([O-])c2ccccc2)C(=O)N(c2ccccc2)N1c1ccccc1 (centres unmarked) [sulfinpyrazone]
concentrations that block secretion of Lucifer Yellow, penicillin and Norfloxacin [2]: 2 to 5 mM
intracellular accumulation of radiolabel from [3H] norfloxacin [3]: marked increase
MCC (Toxicity to J774 cells): > 2.5 mM
effect on intracellular sequestration and secretion of Lucifer Yellow [1]: inhibit both intracellular sequestration and secretion of Lucifer Yellow
ED50 for enhancing intracellular retention of norfloxacin (in words) ([4]; 30 minutes, J774 cells): essentially the same as that for probenecid

SMILES: CC1(C)S[C@@H]2[C@H](NC(=O)Cc3ccccc3)C(=O)N2[C@H]1C(=O)O [penicillin G]
effect on intracellular accumulation of Lucifer Yellow during ATP permeabilization [5]: increase Lucifer Yellow retention in a dose-dependent manner
rate of Lucifer Yellow efflux after co-loading by ATP permeabilization ([2]; 10 mM penicillin G, fluorescence microscopy): reduced the rate of Lucifer Yellow afflux
intracellular radiolabel after incubation with [14C] penicillin G without ATP permeabilization (J774 cells): could not be readily detected
penicillin originally inside the cells secreted into the medium [6]: about 80%
accumulation of [3H] norfloxacin in preloaded cells ([4]; preloaded with 10 mM by ATP-permeabilization, compared with 10 mM gluconic acid preload): significant increase

SMILES: NC(=O)c1cnccn1 [pyrazinamide]
effect on intracellular accumulation of Lucifer Yellow during ATP permeabilization [5]: had no effect

SMILES: O=C(O)[C@H](O)[C@@H](O)[C@H](O)[C@H](O)CO [Gluconic acid]
effect on intracellular accumulation of Lucifer Yellow during ATP permeabilization [5]: had no effect
effect on intracellular norfloxacin concentration ([4]; 10 mM gluconic acid compared with norfloxacin only in PBS): did not affect

SMILES: Cc1ccc(C)c(OCCCC(C)(C)C(=O)O)c1 [GFZ, 5-(2,5-dimethylphenoxy)-2,2-dimethylpentanoic acid]
concentration inhibiting Lucifer Yellow secretion relative to PB [2]: ten-fold lower concentration than PB
intracellular growth of LM in J774 cells ([7]; 0.2 mM GFZ alone): has no effect on the rate or extent of growth; also recorded: does not inhibit growth
enhancement of intracellular accumulation of NFX ([4]; 0.2 mM GFZ): four-fold
EC50 ([4]; J774 cells, read-out: ED50 for enhancing intracellular accumulation of [3H]NFX): 15 µM
ED50 lower than the ED50 of PB or sulfinpyrazone ([4]; [3H]NFX accumulation by J774 cells): 30 fold

time at which intracellular norfloxacin concentration reached plateau [3]: ≤ 10 min
MIC (L. monocytogenes [8]): 4 µg/mL (≈ 12.5 µM)
SMILES: CCn1cc(C(=O)O)c(=O)c2cc(F)c(N3CCNCC3)cc21 [NFX, Norfloxacin]
MBC (L. monocytogenes [9]): 8 µg/mL (≈ 25.1 µM)
intracellular growth of LM in J774 cells ([7]; 2 μg/ml NFX alone): little inhibitory effect; also recorded: slowed intracellular growth
intracellular growth of LM in J774 cells ([7]; 4 μg/ml NFX alone): marked inhibition of intracellular growth; also recorded: bacteriostatic
intracellular growth of LM in J774 cells ([7]; 8 μg/ml NFX alone): bacteriostatic effect

SMILES: CCCN(CCC)S(=O)(=O)c1ccc(C(=O)O)cc1 [probenecid, Probenecid]
increase of intracellular retention of Lucifer Yellow ([5]; 5-10 mM probenecid in medium with Lucifer Yellow and ATP): 2.5 fold
concentrations that block secretion of Lucifer Yellow, penicillin and Norfloxacin [2]: 2 to 5 mM
intracellular accumulation of radiolabel from [3H] norfloxacin [3]: marked increase
time at which intracellular norfloxacin concentration reached plateau ([3]; in the presence of 10 mM probenecid): 30 min
enhancement of intracellular accumulation of norfloxacin ([3]; j774 cells, 10000 µM): 3-4 fold
intracellular penicillin secreted from the cells ([6]; after 30 minutes, in the presence of 10 mM probenecid): 37%
effect on intracellular sequestration and secretion of Lucifer Yellow [1]: inhibit both intracellular sequestration and secretion of Lucifer Yellow
reversibility of the effect on norfloxacin retention ([4]; 10 mM probenecid 30 minutes, then washed): reversible
EC50 ([4]; 30 minutes, J774 cells, read-out: ED50 for enhancing intracellular retention of norfloxacin): 500 µM
[3H] norfloxacin remaining in cells after probenecid removal relative to cells never incubated in probenecid ([4]; steady state after removal of 10 mM probenecid): twice
